Experimental findings from patent publication US6265445A, “Antiarrhythmic compounds” (priority 1997, dated 2001) are described below.

Data set [1] deals with right ventricular papillary muscle. Put plainly: Measurement of the contractile force in vitro. The arrangement: species or system rabbits. The note with it: 1 Hz; expected therapeutic concentration. How it is done: The method used is essentially in agreement with the method of Virag et al. [Gen. Pharmac. 27, pp. 551-556 (1996)].
Papillary muscles of hearts of rabbits (weighing 2 to 3 kg each) were prepared and placed into an organ bath (37° C.) containing modified Tyrode's nutrient medium. The preparations were stimulated by point-stimulation with a basal frequency of 1 Hz. The contractile force was measured by using an auxotonic method. The compounds under test were directly added into the organ bath after dilution of the stock solution according to the final concentration desired. The effects of compounds were observed after an incubation period of 30 to 45 minutes.
Using this method used information can be obtained concerning the direct cardiac effects of the compounds investigated. The effect of the compound of Example 15 on the contractile force is illustrated on the right ventricular papillary muscle at a frequency of 1 Hz in FIG. 2.

Data set [2] relates to right ventricular papillary muscle of dogs. Put plainly: Intracellular microelectrode technique: action potential parameters, ventricular papillary muscle. The arrangement: species or system mongrel dogs. Put shortly: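 Isolated canine right ventricular papillary muscle and Purkinje fibres, superfused with modified Tyrode's at 37 °C and paced at a basal 1 Hz with a variable stimulation rate. Resting potential, AP amplitude and AP duration recorded with 3 N KCl-filled glass microelectrodes. Compounds added to the bath at final concentrations, with effects read after 30–40 min.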

Data set [3] has as its system occlusion and reperfusion arrhythmias in anaesthetized rabbits. Kind of data set: Occlusion and reperfusion induced arrhythmias following acute coronary artery ligation in anaesthetized rabbits. The conditions noted are these: 0.03 mg/kg. The format is in vivo, male rabbits. The method, then: The method used is essentially in agreement with the method of Thiemermann et al. [Br. J. Pharmacol. 97, pp. 401-408 (1989)].
A loose surgical thread loop was placed round the left circumflex coronary artery of the heart following thoracotomy in pentobarbital (30 mg/kg i.v.) anaesthetized male rabbits (weighing 2 to 3 kg); both ends of the thread loop were led out from the chest through an elastic tube. Standard electrocardiogram was registered by using needle electrodes under the skin. The blood pressure of animals was continuously measured by using a catheter placed into the common carotid artery. After stabilization of the blood pressure and heart frequency, the loose loop was tightened to establish a regional myocardial ischaemia. After 10 minutes of ischaemia, the ligature was released and a reperfusion for 10 minutes was established. The survival, the incidence of arrhythmias, the time of onset of arrhythmia and the length of episodes were registered. The animals received physiological saline solution (control) intravenously (2 ml/kg) or 0.03 mg/kg of the compound of Example 15 or a 3 mg/kg dose of d-sotalol at 5 minutes before the occlusion.
By using this method, it can be stated whether the compound under test would be effective for the protection from arrhythmias following coronary artery ligation.

Where [4] appears, read: Table 4, ventricular muscle, 5 μM, 1 Hz, N = 6.

As for `Cc1cccc(C)c1OCC(C)N(C)CCc1ccc(NS(C)(=O)=O)cc1.Cl` (stereo not drawn) [Example 15, N-[4-[2-[N-Methyl-N-[2-(2,6-dimethylphenoxy)-1-methylethyl]amino]ethyl]phenyl]methanesulfonamide hydrochloride], the “negative inotropic action (in words)” value in data set [1] is on record as “did not induce any negative inotropic action”. In addition, in data set [2] (5 μM), the “APA (amplitude of the action potential)” value is 106 mV, the “APD50 (time of 50% repolarization)” value is 210 ms, the “APD90 (time of 90% repolarization)” value came to 261 ms and the “RP (resting potential)” value is recorded as -85 mV. In data set [2] (5 μM), the “Recovery Ampl” value is on record as 83.6 V/s, the “Recovery Ampl/Plateau” value was 0.35, the “Recovery Plateau” value was 245.5 V/s and the “Vmax (maximum rate of depolarization)” value stood at 203 V/s. Further, the “difference between the effects of Example 15 and its enantiomers (in words)” value in data set [2] (5 μM) is “No essential difference could be observed”. The “Trecovery (recovery time constant of Vmax)” value in data set [2] (5 μM, Gy: kinetics of rapid restoration) is given as 270.1 ms. In addition, in data set [2] (5 μM, ventricular muscle of the dog), the “effect on APD in ventricular muscle (in words)” value is “prolonged APD in the ventricular muscle of the dog”. In data set [2] (setting [4]), the APA is recorded as 106.3 ± 2.0 mV, the APD50 is recorded as 209.5 ± 7.1 ms, the APD90 came out at 260.5 ± 6.5 mS and the RP was -84.5 ± 1.3 mV. In data set [2] (setting [4]), the Vmax was 203.0 ± 11.4 V/s; the “Vmax time of recovery T” value amounted to 270.1 ± 14.4 ms; the “Vmax time of recovery amplitude” value stood at 83.6 ± 13.5 V/s; the “Vmax time of recovery amplitude, percentage in parentheses” value is 35 ± 5%. For the same molecule, the “Vmax time of recovery plateau phase” value in data set [2] (setting [4]) is recorded as 245.5 ± 28.0 V/s. Moreover, the “effect on duration of the action potential (in words)” value in data set [2] (concentrations of Table 2) is listed as “simultaneous prolongation of duration of the action potential (APD)”. Further, in data set [2] (rapid recovery kinetics, concentrations of Table 2), the “effect on Vmax (in words)” value is recorded as “mexiletine-like inhibition of Vmax”. In addition, the “antiarrhythmic effect against reperfusion arrhythmias (in words)” value in data set [3] is on record as “strong antiarrhythmic effect”.
